Patent US20210402016A1, “RADIOLABELED BOMBESIN-DERIVED COMPOUNDS FOR IN VIVO IMAGING OF GASTRIN-RELEASING PEPTIDE RECEPTOR (GRPR) AND TREATMENT OF GRPR-RELATED DISORDERS” (Provincial Health Services Authority, priority 2018, published 2021)
Where “and” joins values, the source holds several entries; their conditions need not be identical. Equal entries are not always repeated.

Key:
PC-3 cells = test: Fluorometric calcium release assay (FLIPR Calcium 6); format: cell-based, human
Description: Calcium release assays were performed using a FLIPR Calcium 6 assay kit (Molecular Devices) according to published procedures (26). Briefly, 5×10^4 PC-3 cells were seeded overnight in 96-well clear bottom black plates. The growth medium was replaced with loading buffer containing a calcium-sensitive dye and incubated for 30 min at 37° C. The plate was placed in a FlexStation 3 microplate reader (Molecular Devices) and baseline fluorescent signals were acquired for 15 sec. […] The relative fluorescence unit (RFU=Max-Min) was used to determine the agonistic/antagonistic properties.

GRPR = molecular target: T1, GRPR (Mus musculus, UniProt P21729); conditions: determined using Swiss 3T3 cells; read-out: Reported Ki value; cited from earlier work
T1 construct: the latter value was determined using Swiss 3T3 cells (17); host or cells: Swiss 3T3 cells

[1] = system: PC-3 xenograft bearing mice; test: Biodistribution in PC-3 tumor-bearing NRG mice (Example 1); format: in vivo
Description: The mice were sacrificed by CO2 inhalation at 30 min, 1 h, and 2 h p.i. Blood was collected by cardiac puncture. Organs/tissues were harvested, rinsed with PBS, blotted dry, and weighed. The activity in tissues was assayed by gamma counter and expressed as the percentage injected dose per gram of tissue (% ID/g).

[2] = system: PC-3 xenograft bearing mice; conditions: PET/CT, PC-3 tumor-bearing mice
Description: Animal experiments were approved by the Animal Ethics Committee of the University of British Columbia. Male NOD.Cg-Rag1^tm1Mom∥2rg^tm1Wjl/SzJ (NRG) mice obtained from an in-house colony were subcutaneously inoculated with 5×10^6 PC-3 cells (100 μL; 1:1 PBS/Matrigel), and tumors were grown for 2 to 3 weeks.
Mice were sedated and scanned (Siemens Inveon microPET/CT) with body temperature maintained by heating pad. […] PET data were acquired in list mode, reconstructed using 3-dimensional ordered-subsets expectation maximization (2 iterations) followed by a fast maximum a priori algorithm (18 iterations) with CT-based attenuation correction. Images were analyzed using the Inveon Research Workplace software (Siemens Healthineers).

[3] = system: nude mice bearing PC-3 tumors; conditions: Dalm et al.; cited from earlier work
human GRPR = molecular target: T2, human GRPR (Homo sapiens, UniProt P30550); test: Competition binding assay, displacement of [^125I-Tyr^4]Bombesin on PC-3 cells
T2 construct: endogenous in cells; host or cells: PC-3 human prostate adenocarcinoma cells (whole cells)
Description: Cells were incubated 30-60 min at 37° C.

T2 sequence (P30550 whole entry): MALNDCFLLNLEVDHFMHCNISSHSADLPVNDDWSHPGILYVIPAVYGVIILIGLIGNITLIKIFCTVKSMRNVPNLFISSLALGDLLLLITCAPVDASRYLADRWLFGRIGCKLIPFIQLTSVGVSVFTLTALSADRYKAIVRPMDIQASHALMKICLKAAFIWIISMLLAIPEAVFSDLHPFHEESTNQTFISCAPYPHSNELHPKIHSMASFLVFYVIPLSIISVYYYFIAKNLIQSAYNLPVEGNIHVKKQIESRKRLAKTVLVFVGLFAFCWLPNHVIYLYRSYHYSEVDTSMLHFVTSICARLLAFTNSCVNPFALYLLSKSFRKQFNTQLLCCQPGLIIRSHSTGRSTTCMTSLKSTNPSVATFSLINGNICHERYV
T1 sequence (P21729 whole entry): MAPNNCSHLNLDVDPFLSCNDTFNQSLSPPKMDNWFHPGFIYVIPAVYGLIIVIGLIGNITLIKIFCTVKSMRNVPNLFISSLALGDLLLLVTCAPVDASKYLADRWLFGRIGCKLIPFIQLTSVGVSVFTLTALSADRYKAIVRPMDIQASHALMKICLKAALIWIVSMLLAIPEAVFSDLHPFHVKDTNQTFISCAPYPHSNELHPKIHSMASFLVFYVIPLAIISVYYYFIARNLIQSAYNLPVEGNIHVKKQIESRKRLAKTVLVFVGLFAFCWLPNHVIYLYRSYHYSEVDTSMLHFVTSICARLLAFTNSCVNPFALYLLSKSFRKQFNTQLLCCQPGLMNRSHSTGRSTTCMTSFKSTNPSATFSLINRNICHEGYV

`Nc1ncnc2c1ncn2[C@@H]1O[C@H](COP(=O)(O)OP(=O)(O)OP(=O)(O)O)[C@@H](O)[C@H]1O` [ATP, adenosine triphosphate, reference compound] gave an Intracellular calcium release (PC-3 cells; 50 nM) of 511±45.5 RFUs.
For “D-Phe-Gln-Trp-Ala-Val-Gly-His-Leu-L-Tac-NH2 [RC-3950-II]”, the Ki (GRPR) is listed as 0.078 nM.
With `CC(C)CC(CC(C)C)NC(=O)[C@H](Cc1cnc[nH]1)NC(=O)CNC(=O)[C@@H](NC(=O)[C@H](C)NC(=O)[C@H](Cc1c[nH]c2ccccc12)NC(=O)[C@H](CCC(N)=O)NC(=O)[C@@H](Cc1ccccc1)NC(=O)COCC(=O)Nc1ccc(CNC(=O)CN2CCN(CC(=O)O)CCN(CC(=O)O)CCN(CC(=O)O)CC2)cc1)C(C)C` [^68Ga-NeoBOMB1, metal not drawn, reference compound] the “Biodistribution PC-3 Tumor, Mean” value ([1]; 30 min p.i.) was 9.60±0.99 % ID/g, the “Biodistribution Pancreas, Mean” value ([1]; 30 min p.i.) was 95.7±12.7 % ID/g and the “Biodistribution PC-3 Tumor, Mean” value ([1]; 60 min p.i.) was 9.83±1.48 % ID/g. For the same molecule, the “Biodistribution Pancreas, Mean” value ([1]; 60 min p.i.) was 122±28.4 % ID/g and 123±28.4 % ID/g, the “Biodistribution Blood, Mean” value ([1]; 120 min p.i.) was 0.45±0.10 % ID/g and the “Biodistribution PC-3 Tumor, Mean” value ([1]; 120 min p.i.) was 12.1±3.72 % ID/g. The “Biodistribution Pancreas, Mean” value ([1]; 120 min p.i.) was 139±26.8 % ID/g, the “Excretion / clearance pathway” value [2] was “both the hepatobiliary and renal pathways” and the Uptake in pancreas [3] was roughly 15 % ID/g. For the same molecule, the Uptake in tumor [3] was roughly 10 % ID/g.
“[D-Phe^6, Leu-NHEt^13, des-Met^14]Bombesin(6-14) [reference compound]” gave an Intracellular calcium release (PC-3 cells; 5 nM) of 22.3±16.8 RFUs and an Intracellular calcium release (PC-3 cells; 50 nM) of 42.0±20.4 RFUs.
Molecule `CC(C)CC(CC(C)C)NC(=O)[C@H](Cc1c[nH]cn1)NC(=O)CNC(=O)[C@@H](NC(=O)[C@H](C)NC(=O)[C@H](Cc1c[nH]c2ccccc12)NC(=O)[C@H](CCC(N)=O)NC(=O)[C@@H](Cc1ccccc1)NC(=O)COCC(=O)Nc1ccc(CNC(=O)CN2CCN(CC(=O)O)CCN(CC(=O)O)CCN(CC(=O)O)CC2)cc1)C(C)C` [Ga-NeoBOMB1, reference compound] has a Ki (human GRPR) of 1.71 ± 0.28 nM.
